{"source": "patent US20140178315A1", "about": "“Topical Compositions Comprising Ionic Fluids” (Arch Chemicals, Inc., priority 2012, published 2014)", "conditions": "3 g salt added to 21 g anhydrous betaine glycolate ionic fluid; heated at 105° C. for 2 hours; remained a viscous fluid after cooling to room temperature", "data": [{"compound": "C[N+](C)(C)CC(=O)O.O=c1cc(CO)occ1[O-]", "note": "[betaine kojiate]", "values": [{"measurement": "Solubility of betaine kojiate in betaine glycolate ionic fluid (appearance of the mixture)", "value": "formed a clear fluid"}]}]}
